As a reminder, the IC50 is the concentration at which inhibition is half-maximal. Read a high IC50 as weaker potency.

We go through one compound from patent US20140294970A1, “STABILIZED PHARMACEUTICAL SUB-MICRON SUSPENSIONS AND METHODS OF FORMING SAME” (Alcon Research, Ltd., priority 2008, published 2014).

The test system of the experiment is FGFR. Kind of experiment: Kinase inhibition, cell-free enzymatic assay. The format is biochemical. The conditions noted are these: 1 mM ATP. As for the experimental part:
All data reported as IC50 values for kinase inhibition in cell-free enzymatic assays. Values determined @ 1 mM ATP.

For `Cc1ccc(F)c(NC(=O)Nc2ccc(-c3cccc4[nH]nc(N)c34)cc2)c1` [RTK Inhibitor, N-[4-(3-amino-1H-indazol-4-yl)phenyl]-N′-(2-fluoro-5-methylphenyl) urea], the IC50 was above 12.5 µM.
